The test system of the test is LXRα and/or LXRβ. As to the kind of experiment: LXR/LXRE co-transfection assay (luciferase reporter, CV-1 cells). To be noted: IC50 or EC50 for LXR (LXRα and/or LXRβ, not distinguished), tested as described in Example 109, CV-1 cells. The test is classed as cell-based, human. Put shortly:
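Transient co-transfection of CV-1 cells with full-length human LXRα or LXRβ plus RXRα expression plasmids and an LXREx1-Tk-luciferase reporter; compounds (10 μM screen, ≤1% DMSO) incubated 20 h at 37 °C. Luminescence read after lysis; EC50/IC50 from 8-point half-log curves, efficacy relative to a high control or DMSO.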
Background: In a reporter assay the amount or activity of a reporter protein is the signal.
Take `CC(C)(O)c1cc(-c2cc(C(F)(F)F)nn2-c2ccccc2Cl)ccc1-c1cccc(S(C)(=O)=O)c1` [Example 1207, 2-{4-[1-(2-chlorophenyl)-3-(trifluoromethyl)-1H-pyrazol-5-yl]-3′-(methylsulfonyl)biphenyl-2-yl}propan-2-ol]: the EC50 is 1000 to 10000 nM.
`COC(=O)c1cccc(-c2ccc(-c3cc(C(F)(F)F)nn3-c3ccccc3Cl)cc2)c1` [Example 1208, methyl 4′-[1-(2-chlorophenyl)-3-(trifluoromethyl)-1H-pyrazol-5-yl]biphenyl-3-carboxylate] yielded an EC50 of 1000 to 10000 nM.
The compound `CS(=O)(=O)c1cccc(-c2ccc(-c3cc(C(O)C(F)(F)F)nn3-c3ccccc3Cl)s2)c1` (centres unmarked) [Example 1209, 1-[1-(2-chlorophenyl)-5-{5-[3-(methylsulfonyl)phenyl]-2-thienyl}-1H-pyrazol-3-yl]-2,2,2-trifluoroethanol] came in with an EC50 of less than 1000 nM.
For `CS(=O)(=O)c1cccc(-c2ccc(-c3cc(C(=O)N4CCCC4)nn3-c3ccccc3C(F)(F)F)s2)c1` [Example 1210, 5-{5-[3-(methylsulfonyl)phenyl]-2-thienyl}-3-(pyrrolidin-1-ylcarbonyl)-1-[2-(trifluoromethyl)phenyl]-1H-pyrazole], the EC50 was less than 1000 nM.
In the case of `COC(F)(F)c1cc(-c2ccc(-c3cccc(S(C)(=O)=O)c3)s2)n(-c2ccccc2C(F)(F)F)n1` [Example 1211, 3-[difluoro(methyloxy)methyl]-5-{5-[3-(methylsulfonyl)phenyl]-2-thienyl}-1-[2-(trifluoromethyl)phenyl]-1H-pyrazole], the EC50 was less than 1000 nM.
On to `CC(C)(O)c1cc(-c2ccc(-c3cccc(S(C)(=O)=O)c3)s2)n(-c2cc(Cl)ccc2Oc2ccccc2)n1` [Example 1212, 2-(1-[5-chloro-2-(phenyloxy)phenyl]-5-{5-[3-(methylsulfonyl)phenyl]-2-thienyl}-1H-pyrazol-3-yl)propan-2-ol], for which the EC50 was less than 1000 nM.
`CC(=O)c1cc(-c2ccc(-c3cccc(S(C)(=O)=O)c3)s2)n(-c2cc(Cl)ccc2Oc2ccccc2)n1` [Example 1213, 1-(1-[5-chloro-2-(phenyloxy)phenyl]-5-{5-[3-(methylsulfonyl)phenyl]-2-thienyl}-1H-pyrazol-3-yl)ethanone] yielded an EC50 of less than 1000 nM.
`CC(C)(O)c1cc(-c2ccc(-c3cccc(S(N)(=O)=O)c3)s2)n(-c2cc(Cl)ccc2Cl)n1` [Example 1214, 3-{5-[1-(2,5-dichlorophenyl)-3-(1-hydroxy-1-methylethyl)-1H-pyrazol-5-yl]-2-thienyl}benzenesulfonamide]: the EC50 lay in the range of 1000 to 10000 nM.
`CS(=O)(=O)c1cccc(-c2ccc(-c3cc(C(F)(F)F)nn3-c3ccccc3Oc3ccccc3)s2)c1` [Example 1215, 5-{5-[3-(methylsulfonyl)phenyl]-2-thienyl}-1-[2-(phenyloxy)phenyl]-3-(trifluoromethyl)-1H-pyrazole]: the EC50 is less than 1000 nM.
In turn, `CC(C)(O)c1cc(-c2ccccc2Cl)n(-c2ccc(-c3cccc(S(C)(=O)=O)c3)cc2)n1` [Example 1217, 2-{5-(2-chlorophenyl)-1-[3′-(methylsulfonyl)biphenyl-4-yl]-1H-pyrazol-3-yl}propan-2-ol] came in with an EC50 of 1000 to 10000 nM.
As for `COC(=O)c1cc(-c2ccccc2Cl)n(-c2ccc(-c3cccc(S(C)(=O)=O)c3)cc2)n1` [Example 1218, methyl 5-(2-chlorophenyl)-1-[3′-(methylsulfonyl)biphenyl-4-yl]-1H-pyrazole-3-carboxylate], the EC50 is less than 1000 nM.
The compound `CC(C)(O)c1cc(-c2ccc(-c3cccc(S(C)(=O)=O)c3)cc2)n(-c2ccccc2Cl)n1` [Example 1219, 2-{1-(2-chlorophenyl)-5-[3′-(methylsulfonyl)biphenyl-4-yl]-1H-pyrazole-3-yl}propan-2-ol] had a concentration giving a half-maximal response (EC50) of less than 1000 nM.
As for `COC(=O)c1cccc(-n2nc(C(=O)OC)cc2-c2ccc(-c3cccc(S(C)(=O)=O)c3)s2)c1` [Example 1220, methyl 1-{3-[(methyloxy)carbonyl]phenyl}-5-{5-[3-(methylsulfonyl)phenyl]-2-thienyl}-1H-pyrazole-3-carboxylate], the figure is less than 1000 nM.
As for `CC(C)(O)c1cccc(-c2ccc(-c3cc(C(F)(F)F)nn3-c3ccccc3Cl)cc2)c1` [Example 1221, 2-{4′-[1-(2-chlorophenyl)-3-(trifluoromethyl)-1H-pyrazol-5-yl]biphenyl-3-yl}propan-2-ol], the figure is less than 1000 nM; as for `CS(=O)(=O)c1cccc(-c2ccc(-c3cc(C(F)(F)F)nn3CCN3CCOCC3)cc2)c1` [Example 1222, 4-(2-{5-[3′-(methylsulfonyl)phenyl-4-yl]-3-(trifluoromethyl)-1H-pyrazol-1-yl}ethyl)morpholine], less than 1000 nM.
In turn, `CN1CCN(CCn2nc(C(F)(F)F)cc2-c2ccc(-c3cccc(S(C)(=O)=O)c3)cc2)CC1` [Example 1223, 1-methyl-4-(2-{5-[3′-(methylsulfonyl)biphenyl-4-yl]-3-(trifluoromethyl)-1H-pyrazol-1-yl}ethyl)piperazine] gave an EC50 of 1000 to 10000 nM.
In turn, `CC(=O)c1cc(-c2ccccc2Cl)n(-c2ccc(-c3cccc(S(C)(=O)=O)c3)cc2)n1` [Example 1224, 1-{5-(2-chlorophenyl)-1-[3′-(methylsulfonyl)biphenyl-4-yl]-1H-pyrazol-3-yl}ethanone] came in with an EC50 of less than 1000 nM.
With `CS(=O)(=O)c1cccc(-c2ccc(-n3nc(C(O)(C(F)(F)F)C(F)(F)F)cc3-c3ccccc3Cl)cc2)c1` [Example 1225, 2-{5-(2-chlorophenyl)-1-[3′-(methylsulfonyl)biphenyl-4-yl]-1H-pyrazol-3-yl}-1,1,1,3,3,3-hexafluoropropan-2-ol] the figure was less than 1000 nM; with `CC(C)(O)c1cccc(-n2nc(C(C)(C)O)cc2-c2ccc(-c3cccc(S(C)(=O)=O)c3)s2)c1` [Example 1226, 2-{3-[3-(1-hydroxy-1-methylethyl)-5-{5-[3-(methylsulfonyl)phenyl]-2-thienyl}-1H-pyrazol-1-yl]phenyl}propan-2-ol], 1000 to 10000 nM; with `CS(=O)(=O)c1cccc(-c2ccc(-c3cc(C(F)(F)F)nn3-c3c(Cl)cccc3Cl)s2)c1` [Example 1227, 1-(2,6-dichlorophenyl)-5-{5-[3-(methylsulfonyl)phenyl]-2-thienyl}-3-(trifluoromethyl)-1H-pyrazole], less than 1000 nM.
As to `CS(=O)(=O)c1cccc(-c2ccc(-c3cc(C4(O)CCCC4)nn3-c3ccccc3Cl)s2)c1` [Example 1228, 1-[1-(2-chlorophenyl)-5-{5-[3-(methylsulfonyl)phenyl]-2-thienyl}-1H-pyrazol-3-yl]cyclopentanol], the EC50 is less than 1000 nM.
Take `CC(C)(O)c1ccccc1-n1nc(C(F)(F)F)cc1-c1ccc(-c2cccc(S(C)(=O)=O)c2)s1` [Example 1229]: the EC50 is less than 1000 nM.
On to `COC(=O)c1cc(-c2ccccc2Cl)n(-c2ccc(-c3cccc(S(C)(=O)=O)c3)cn2)n1` [Example 1230, methyl 5-(2-chlorophenyl)-1-{5-[3-(methylsulfonyl)phenyl]pyridin-2-yl}-1H-pyrazole-3-carboxylate], for which the concentration for a half-maximal effect (EC50) lay in the range of 1000 to 10000 nM.
With `CS(=O)(=O)c1cccc(-c2ccc(-n3nc(C(F)(F)F)cc3-c3ccccc3C(F)(F)F)nc2)c1` [Example 1231, 5-[3-(methylsulfonyl)phenyl]-2-{3-(trifluoromethyl)-5-[2-(trifluoromethyl)phenyl]-1H-pyrazol-1-yl}pyridine], the 50% effective concentration (EC50) is less than 1000 nM.
`CS(=O)(=O)c1cccc(-c2ccc(-c3cc(C(=O)NCCc4ccccn4)nn3-c3ccccc3Cl)s2)c1` [Example 1232, 1-(2-chlorophenyl)-5-{5-[3-(methylsulfonyl)phenyl]-2-thienyl}-N-(2-pyridin-2-ylethyl)-1H-pyrazole-3-carboxamide] gave an EC50 of 1000 to 10000 nM.
For the compound `CC(C)(O)c1cc(-c2ccccc2Cl)n(-c2ccc(-c3cccc(S(C)(=O)=O)c3)cn2)n1` [Example 1233, 2-[5-(2-chlorophenyl)-1-{5-[3-(methylsulfonyl)phenyl]pyridin-2-yl}-1H-pyrazol-3-yl]propan-2-ol], the EC50 fell in the range of 1000 to 10000 nM.
`COC(=O)c1cc(-c2cc(-c3cccc(S(C)(=O)=O)c3)co2)n(-c2ccccc2Cl)n1` [Example 1234, methyl 1-(2-chlorophenyl)-5-{4-[3-(methylsulfonyl)phenyl]furan-2-yl}-1H-pyrazole-3-carboxylate] yielded an EC50 of less than 1000 nM.
The compound `CC(C)(O)c1cc(-c2cc(-c3cccc(S(C)(=O)=O)c3)co2)n(-c2ccccc2Cl)n1` [Example 1235, 2-[1-(2-chlorophenyl)-5-{4-[3-(methylsulfonyl)phenyl]furan-2-yl}-1H-pyrazol-3-yl]propan-2-ol] gave an EC50 of 1000 to 10000 nM.
With `CS(=O)(=O)c1cccc(-c2ccc(-c3cc(C(=O)NCC(F)(F)F)nn3-c3ncccc3C(F)(F)F)s2)c1` [Example 1236, 5-{5-[3-(methylsulfonyl)phenyl]-2-thienyl}-N-(2,2,2-trifluoroethyl)-1-[3-(trifluoromethyl)pyridin-2-yl]-1H-pyrazole-3-carboxamide] the figure was 1000 to 10000 nM; with `CON(C)C(=O)c1cc(-c2ccc(-c3cccc(S(C)(=O)=O)c3)s2)n(-c2ncccc2C(F)(F)F)n1` [Example 1237, N-methyl-N-(methyloxy)-5-{5-[3-(methylsulfonyl)phenyl]-2-thienyl}-1-[3-(trifluoromethyl)pyridin-2-yl]-1H-pyrazole-3-carboxamide], 1000 to 10000 nM.
With `COC(=O)c1cc(-c2ccc(-c3cccc(S(C)(=O)=O)c3)s2)n(-c2c(Cl)cccc2Cl)n1` [Example 1238, methyl 1-(2,6-dichlorophenyl)-5-{5-[3-(methylsulfonyl)phenyl]-2-thienyl}-1H-pyrazole-3-carboxylate] the figure was less than 1000 nM; with `CC(C)(O)c1cc(-c2ccc(-c3cccc(S(C)(=O)=O)c3)s2)n(-c2c(Cl)cccc2Cl)n1` [Example 1239, 2-[1-(2,6-dichlorophenyl)-5-{5-[3-(methylsulfonyl)phenyl]-2-thienyl}-1H-pyrazol-3-yl]propan-2-ol], less than 1000 nM.

Usually EC50 stands for the concentration needed to bring the measured effect to its halfway point. A higher EC50 goes with lower potency in that assay.

For the origin of these results see patent US8703805B2 (Exelixis Patent Company LLC, priority 2005, dated 2014).
